Reference: patent publication US8084643B2, “Water-soluble prodrugs of florfenicol and its analogs” (Intervet Inc., priority 2006, dated 2011)
Read-outs that look alike come from different tables or passages of the source.

Key:
[1] = Stability of prodrugs in aqueous solution at pH 4.5; assay type: physicochemical; conditions: distilled water, pH 4.5, room temperature, florfenicol release by HPLC
Description: (§1) Determination of stability of prodrugs in aqueous solutions. Prodrugs were dissolved in pH 7.4 phosphate buffer at concentration of 1 mg/mL. • The clear solution was placed at room temperature. 400 μL aliquots of the solution were transferred at times 0, 1, 2, 8, 24, and 48 hours to plastic tubes containing 400 μL dilute HCl solution to achieve the final pH of around 4.0. Samples were analyzed by HPLC. The peak area of florfenicol was used to determine the rate of the parent drug release. at pH 4.5 • Prodrugs were dissolved in distilled water at concentration of 0.5 mg/mL. The pH was adjusted to 4.5 with dilute HCl when necessary. The clear solution was placed at room temperature. Samples for analysis were removed at times 0, 1, 2, 4, and 7 days. Samples were analyzed by HPLC. Peak area of florfenicol was used to determine the rate of the parent drug release. Instrument: Agilent 1100 Column: C18, 5 mm, 2.1 mm×150 mm Flow rate: 0.5 mL/min Temperature: 30° C. Detector: UV 254 nm Injection volume: 10 mL Solvent: gradient with 0.1% formic acid in water, acetonitrile

[2] = Stability of prodrugs in aqueous solution at pH 7.4 (phosphate buffer); assay type: physicochemical
Description: Determination of stability of prodrugs in aqueous solutions.
as §1, with “Prodrugs” for “Determination of stability of prodrugs in aqueous solutions. Prodrugs”, “release.” for “release. Instrument: Agilent 1100 Column: C18, 5 mm, 2.1 mm×150 mm Flow rate: 0.5 mL/min Temperature: 30° C. Detector: UV 254 nm Injection volume: 10 mL Solvent: gradient with 0.1% formic acid in water, acetonitrile”
(§2) Solvent: gradient with 0.1% formic acid in water, acetonitrile

[3] = Stability of prodrugs in bovine serum; assay type: in vitro ADME; conditions: for half-life at 0.099 mg/mL: 37° C.
Description: (§3) Determination of stability of prodrugs in bovine or swine serum; • 10 mg/mL in dimethylsulfoxide stock solutions of pro-drugs were prepared. 50 μL of the above stock solution was added to 5 mL bovine or swine serum, and mixed. 400 μL aliquots of the above pro-drug serum solutions were transferred into plastic tubes (one tube per time point). Solutions were incubated at 37° C. for predetermined time. Samples were removed at times 0, 1, 2, 4, 8, and 24 hours and were spiked with 400 μL of acetonitrile. Samples were stirred for 30 seconds to precipitate the protein and to stop the reaction and were centrifuged at 14,000 rpm for 5 minutes. The supernatant was collected for HPLC analysis. Peak area of florfenicol was used to determine the rate of the parent drug release HPLC Conditions
as §2

[4] = Stability of prodrugs in swine serum; assay type: in vitro ADME; conditions: 37° C., florfenicol release by HPLC
Description: as §3, §2

[5] = Stability of prodrugs in aqueous solution at pH 7.4 (phosphate buffer); assay type: physicochemical; conditions: in vitro evaluation, pH 7.4 adjusted solution
[6] = pH 7.4, pH 7.4 aqueous solutions, range from a few minutes to 3 hrs, read-out: Half-lives in pH 7.4 aqueous solutions
[7] = pH 7.4, pH 7.4 phosphate buffer, 1 mg/mL, room temperature, florfenicol release by HPLC, read-out: Half life pH 7.4 (converted)

| SMILES | half-life at 0.5 mg/mL [1] | half-life at 1 mg/mL [2, 6] | half-life at 1 mg/mL [2, 7] | half-life at 0.099 mg/mL ([3]; florfenicol release by HPLC) | half-life at 0.099 mg/mL [4] | half-life at 0.099 mg/mL ([3]; min) | formation of the rearranged isomer of the prodrug [5] | half-life at 1 mg/mL ([2]; pH 7.4, pH 7.4 phosphate buffer, 1 mg/mL, room temperature, min, read-out: Half life pH 7.4 (converted)) | rearrangement in bovine serum [3] |
| --- | --- | --- | --- | --- | --- | --- | --- | --- | --- |
| CS(=O)(=O)c1ccc([C@@H](OC(=O)CNC(=O)CN)[C@@H](CF)NC(=O)C(Cl)Cl)cc1.Cl [Example 9, (1R,2S)-2-(2,2-dichloroacetamido)-3-fluoro-1-(4-(methylsulfonyl)phenyl)propyl (1-amino-acetoamino)acetate hydrochloride] | 52 days | ≤ 3 h | 0.89 h | 1.4 h | 1.2 h | – | – | – | – |
| C[C@H](N)C(=O)N[C@@H](C)C(=O)O[C@H](c1ccc(S(C)(=O)=O)cc1)[C@@H](CF)NC(=O)C(Cl)Cl.Cl [Example 11, (1R,2S)-2-(2,2-dichloroacetamido)-3-fluoro-1-(4-(methylsulfonyl)phenyl)propyl 2-(2-amino-propionylamino)propionate hydrochloride] | 290 days | ≤ 3 h | 2.5 h | – | – | < 0.167 h | – | – | – |
| CNCCCOC(=O)O[C@H](c1ccc(S(C)(=O)=O)cc1)[C@@H](CF)NC(=O)C(Cl)Cl.Cl [Example 6, (1R,2S)-2-(2,2-dichloroacetamido)-3-fluoro-1-(4-(methylsulfonyl)phenyl)propyl 3-(methylamino)propyl carbonate hydrochloride] | 269 days | – | 74 h | 0.69 h | 7 h | – | did not show any formation of the rearranged isomer | – | – |
| CNCCCCC(=O)O[C@H](c1ccc(S(C)(=O)=O)cc1)[C@@H](CF)NC(=O)C(Cl)Cl.Cl [Example 12] | 567 days | – | 84 h | 1.4 h | – | – | – | – | – |
| C[C@@H](N)C(=O)NCCCC(=O)O[C@H](c1ccc(S(C)(=O)=O)cc1)[C@@H](CF)NC(=O)C(Cl)Cl.Cl [Example 4, (1R,2S)-2-(2,2-dichloroacetamido)-3-fluoro-1-(4-(methylsulfonyl)phenyl)propyl 4-(2-amino-propionylamino)butyrate hydrochloride] | 278 days | – | 670 h | 6.5 h | – | – | – | – | – |
| CCNCCOC(=O)O[C@H](c1ccc(S(C)(=O)=O)cc1)[C@@H](CF)NC(=O)C(Cl)Cl.Cl [Example 7, (1R,2S)-2-(2,2-dichloroacetamido)-3-fluoro-1-(4-(methylsulfonyl)phenyl)propyl 2-(ethylamino)ethyl carbonate hydrochloride] | 156 days | ≤ 3 h | 6.1 h | 0.59 h | – | – | considerable amounts | – | – |
| CS(=O)(=O)c1ccc([C@@H](OC(=O)COCCN)[C@@H](CF)NC(=O)C(Cl)Cl)cc1.Cl [Example 14, (1R,2S)-2-(2,2-dichloroacetamido)-3-fluoro-1-(4-(methylsulfonyl)phenyl)propyl (2-amino-ethoxy)acetate hydrochloride] | 137 days | ≤ 3 h | 0.66 h | – | – | < 0.167 h | – | – | – |
| CCNCCCOC(=O)O[C@H](c1ccc(S(C)(=O)=O)cc1)[C@@H](CF)NC(=O)C(Cl)Cl.Cl [Example 13, (1R,2S)-2-(2,2-dichloroacetamido)-3-fluoro-1-(4-(methylsulfonyl)phenyl)propyl 3-(ethylamino)propyl carbonate hydrochloride] | 339 days | – | 290 h | 0.71 h | – | – | – | – | – |
| CS(=O)(=O)c1ccc([C@@H](OC(=O)CCCCN)[C@@H](CF)NC(=O)C(Cl)Cl)cc1.Cl [Example 10, (1R,2S)-2-(2,2-dichloroacetamido)-3-fluoro-1-(4-(methylsulfonyl)phenyl)propyl 5-aminopentanoate hydrochloride] | 643 days | – | 100 h | 0.49 h | 4.1 h | – | – | – | – |
| CS(=O)(=O)c1ccc([C@@H](OC(=O)CN)[C@@H](CF)NC(=O)C(Cl)Cl)cc1 [Example 17, Amino-acetic acid 2-(2,2-dichloro-acetylamino)-3-fluoro-1-(4-methanesulfonyl-phenyl)-propyl ester] | 18 days | – | 4.4 h | 1.8 h | – | – | – | – | – |
| CS(=O)(=O)c1ccc([C@@H](OC(=O)[C@H](N)CCCN)[C@@H](CF)NC(=O)C(Cl)Cl)cc1.Cl.Cl [Example 8] | 44 days | ≤ 3 h | – | – | – | < 0.167 h | – | < 0.167 h | – |
| CS(=O)(=O)c1ccc([C@@H](OC(=O)CCCN)[C@@H](CF)NC(=O)C(Cl)Cl)cc1.Cl [Example 3, (1R,2S)-2-(2,2-dichloroacetamido)-3-fluoro-1-(4-(methylsulfonyl)phenyl)propyl 4-aminobutyrate hydrochloride] | – | – | 300 h | 3.5 h | – | – | – | – | – |
| Br.C[N+](C)(C)CCCC(=O)O[C@H](c1ccc(S(C)(=O)=O)cc1)[C@@H](CF)NC(=O)C(Cl)Cl [Example 15] | > 1000 days | – | 160 h | – | – | – | – | – | – |
| CNCCOC(=O)O[C@H](c1ccc(S(C)(=O)=O)cc1)[C@@H](CF)NC(=O)C(Cl)Cl.Cl [Example 2, (1R,2S)-2-(2,2-dichloroacetamido)-3-fluoro-1-(4-(methylsulfonyl)phenyl)propyl 2-(methylamino)ethyl carbonate hydrochloride] | 487 days | ≤ 3 h | 0.5 h | – | – | – | considerable amounts | – | – |
| CS(=O)(=O)c1ccc([C@@H](OC(=O)OCCCN)[C@@H](CF)NC(=O)C(Cl)Cl)cc1.Cl [Example 5, (1R,2S)-2-(2,2-dichloroacetamido)-3-fluoro-1-(4-(methylsulfonyl)phenyl)propyl 3-aminopropyl carbonate hydrochloride] | 248 days | – | 83 h | 3.8 h | 9.5 h | – | only a small amount of rearrangement product | – | no rearrangement was observed |
| CS(=O)(=O)c1ccc([C@@H](OC(=O)OCCN)[C@@H](CF)NC(=O)C(Cl)Cl)cc1.Cl [Example 1, (1R,2S)-2-(2,2-dichloroacetamido)-3-fluoro-1-(4-(methylsulfonyl)phenyl)propyl 2-aminoethyl carbonate hydrochloride] | 202 days | ≤ 3 h | 1.8 h | 0.7 h | – | – | considerable amounts | – | – |
| Br.Cn1cc[n+](CCCC(=O)O[C@H](c2ccc(S(C)(=O)=O)cc2)[C@@H](CF)NC(=O)C(Cl)Cl)c1 [Example 16, 1-[3-[2-(2,2-Dichloro-acetylamino)-3-fluoro-1-(4-methanesulfonyl-phenyl)-propoxycarbonyl]-propyl]-3-methyl-3H-imidazol-1-ium bromide] | > 1000 days | – | 350 h | 10.5 h | – | – | – | – | – |
